Patent publication US20090318678A1, “Stable C-Glycoside Sugar and C-Glycoconjugate Mimetics, Method for preparing same and uses Thereof in Particular in Cosmetics and Drugs” (TFCHEM, priority 2006, published 2009)

System: α-galactosidase and β-galactosidase
Experiment: Test in the presence of glycosidase (resistance to galactosidases, monitored by 19F NMR)
Format: in vitro ADME
Conditions: phosphate buffer 0.07 M, pH 7, 37° C.; α-galactosidase (5 units) and β-galactosidase (6.25 units); samples after 24, 48, 72, 96 and 120 hours
Protocol: Indeed, it is known that the following compounds undergo enzymatic break-down (FIG. 25).
The protocol used is as follows (FIG. 26)
A solution of compound 17a1 (17.72 mg) in water (500 μl) is added to a solution of phosphate buffer (0.07 M; pH 7, 4 ml) containing α-galactosidase (5 units) and β-galactosidase (6.25 units) at 37° C. The reaction is monitored by ^19F NMR. Samples are taken after 24, 48, 72, 96 and 120 hours.

For C[C@H](NC(=O)[C@H](C)NC(=O)[C@@H](N)CCCCNC(=O)[C@H](F)[C@]1(O)O[C@H](CO)[C@H](O)[C@H](O)[C@H]1O)C(=O)O [Compound 17a1], the “resistance to glycosidases / stability (change of the starting product by 19F NMR)” value was “No change is observed and the starting product remains”.
